According to patent US20250092030A1, “ENHANCERS OF PARTICULATE GUANYLYL CYCLASE RECEPTOR A” (Mayo Foundation for Medical Education and Research, priority 2023, published 2025):
Values joined by “and” are separate entries in the source; they are usually repeats but may differ in a detail not shown here. Equal entries are not always repeated. Where two headings read alike, the source gives them in different places.

Target: T1, particulate guanylyl cyclase receptor A (pGC-A) (Homo sapiens, UniProt P16066)
T1 construct: expressed in transfected cells; host or cells: HEK293
T1 sequence (P16066 33-1061): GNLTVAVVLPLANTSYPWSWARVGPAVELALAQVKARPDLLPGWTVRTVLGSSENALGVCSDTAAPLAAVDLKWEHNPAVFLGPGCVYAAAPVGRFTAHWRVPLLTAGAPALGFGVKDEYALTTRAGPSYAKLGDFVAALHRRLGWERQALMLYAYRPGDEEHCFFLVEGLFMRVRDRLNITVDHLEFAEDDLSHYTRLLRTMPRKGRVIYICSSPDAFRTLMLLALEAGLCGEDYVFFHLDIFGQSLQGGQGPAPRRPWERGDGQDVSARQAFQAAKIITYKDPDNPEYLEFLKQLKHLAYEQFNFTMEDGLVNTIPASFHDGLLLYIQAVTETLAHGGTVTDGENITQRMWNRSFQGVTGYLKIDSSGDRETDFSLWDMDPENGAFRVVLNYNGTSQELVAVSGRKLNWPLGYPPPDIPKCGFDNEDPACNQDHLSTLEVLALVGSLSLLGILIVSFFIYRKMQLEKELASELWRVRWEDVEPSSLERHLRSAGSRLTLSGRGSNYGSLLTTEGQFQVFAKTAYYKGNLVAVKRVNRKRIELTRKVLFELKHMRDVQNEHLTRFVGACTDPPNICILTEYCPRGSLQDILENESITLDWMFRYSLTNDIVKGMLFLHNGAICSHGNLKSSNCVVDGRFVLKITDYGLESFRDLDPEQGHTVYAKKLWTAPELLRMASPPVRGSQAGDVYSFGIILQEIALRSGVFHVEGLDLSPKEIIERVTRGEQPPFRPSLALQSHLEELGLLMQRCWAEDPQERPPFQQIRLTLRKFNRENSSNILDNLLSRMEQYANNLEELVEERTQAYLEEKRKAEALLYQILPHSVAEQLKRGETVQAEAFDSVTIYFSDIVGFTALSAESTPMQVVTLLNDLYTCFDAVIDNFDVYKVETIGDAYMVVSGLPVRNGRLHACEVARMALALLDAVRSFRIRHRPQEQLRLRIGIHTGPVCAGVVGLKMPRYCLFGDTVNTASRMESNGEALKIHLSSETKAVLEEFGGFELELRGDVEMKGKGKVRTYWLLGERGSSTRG
T1 sequence (P01160 124-151 partner limits assumed): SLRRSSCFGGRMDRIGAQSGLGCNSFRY
Test: cGMP production by HTRF in HEK293 cells overexpressing pGC-A, with ANP
Format: cell-based
Conditions: for Emax / Max efficacy: cGMP normalized to maximal amount produced by an EC80 concentration of ANP; for Emax: read-out: Max efficacy; for EC50: test compound plus EC20 concentration of ANP, cGMP by HTRF
From the text: Assay: Generally, the assay monitors the production of cGMP, the second messenger generated by pGC-A, by Time-Resolved Florescence (HTRF) in HEK293 cells overexpressing the pGC-A. pGC-A suspension cells were stimulated in the presence of the test compound and an EC20 concentration of ANP. The quantity of cGMP was detected by competitive immunoassay using Eu^3+ cryptate-labeled anti-cGMP and d2-labeled cGMP and normalized to maximal amount produced by an EC80 concentration of ANP. Compound EC50 values were determined in the primary assay, in the presence or absence of ANP, to determine mode of action as positive modulators and tested for selectivity in the same assay platform but in HEK cells overexpressing the particulate guanylyl cyclase B receptor (pGC-B), of which CNP is the endogenous ligand.
Assay details: 20 nL of 10 μM test compound in DMSO was added to columns 5-48 of 1536 well white high base screening plates (Corning, New York, NY) cells using 550 ECHO acoustic dispenser (Labcyte, San Jose, CA). Alpha-atrial natriuretic peptide (ANP) (Phoenix Pharmaceutics) was prepared as stock aliquots at 5 μM in PBS with 0.1% BSA. An approximate […] concentration of ANP ([…]) in assay buffer (HBSS containing 5 mM HEPES and 0.05% BSA) was added to columns 3-48 at a volume of 1 μL. Assay buffer only was added to column 1 and assay buffer containing a saturating concentration of ANP (5 nM) was added to column 2. HEK293 cells overexpressing GC-A were resuspended in assay media (OptimMem media containing 2% Heat-inactivated Fetal bovine serum and L-glutamine) at a density of 6×10^5 cells/mL and 2 μL were plated in screening plates (1200 cells/well) in suspension using a Bioraptr 2. Plates were spun at 1000 rpm for 1 min and incubated for 30 min at room temperature. 1.5 μL d2-labeled cGMP followed by 1.5 μL Eu^3+ cryptate-labeled anti-cGMP cGMP detection kit (CiBio; #62GM2PEC) prepared according to manufacturer's protocol were added to all wells using a Bioraptr 2 and TR-FRET signal was detected on an EnVision detector (PerkinElmer). Wells treated with 0.3% DMSO only serve as blank controls (column 1); wells treated with 0.3% DMSO and 5 nM ANP (columns 2) serve as positive controls and wells treated with 0.3% DMSO and […] ANP (columns 3-4) serve as negative controls.

[1] = HEK293, HEK293 cells overexpressing pGC-A
[2] = HEK293 cells overexpressing pGC-A

| Emax [1] [%] | Max efficacy [2] | EC50 [2] | SMILES | Emax [2] [%] |
| --- | --- | --- | --- | --- |
| 82 | 63% | 2.2 µM and 1.2 µM | CN(C)CCN1CCCC(C(=O)Nc2nc3cccc(Cl)c3s2)C1 (stereo not shown) [compound 033] | – |
| 99 | – | 5.9 µM | Cc1cccc2nc(NC(=O)C3CCCN(CCN(C)C)C3)sc12 (stereo not shown) [compound 034] | – |
| 96 | – | – | CN(C)CCN1CCCCC1C(=O)Nc1nc2c(F)cc(F)cc2s1 (stereo not shown) [compound 037] | – |
| – | – | > 5 µM | CN1CCC(N2CCCCC2C(=O)Nc2nc3c(F)cc(F)cc3s2)C1 (stereo not shown) [compound 038] | – |
| 101 | – | 1.53 µM | CN(C)CCCN1CCCCC1C(=O)Nc1nc2c(F)cc(F)cc2s1 (stereo not shown) [compound 041] | – |
| – | – | > 5 µM | O=C(Nc1nc2c(F)cc(F)cc2s1)C1CNCCN1C(=O)OCc1ccccc1 (stereo not shown) [compound 043] | – |
| – | – | > 5 µM | CN(C)CCN1CCOC(C(=O)Nc2nc3c(F)cc(F)cc3s2)C1 (stereo not shown) [compound 046] | – |
| – | – | > 5 µM | O=C(Nc1nc2c(F)cc(F)cc2s1)C1CNCCO1 (stereo not shown) [compound 047] | – |
| 92 | – | 0.8 µM | CN(C)CCN1CCCC1C(=O)Nc1nc2c(F)cc(F)cc2s1 (stereo not shown) [compound 053] | – |
| 89 | – | 0.6 µM | CN(C)CCN1CCCCC(C(=O)Nc2nc3c(F)cc(F)cc3s2)C1 (stereo not shown) [compound 055] | – |
| – | – | > 5 µM | CN(C)CCN1CC(C(=O)Nc2nc3c(F)cc(F)cc3s2)Cc2ccccc21 (stereo not shown) [compound 057] | – |
| 95 | – | 2.6 µM | O=C(Nc1nc2c(F)cc(F)cc2s1)C1CNc2ccccc2C1 (stereo not shown) [compound 058] | – |
| – | – | > 5 µM | CN(C)CCN1Cc2ccccc2C(C(=O)Nc2nc3c(F)cc(F)cc3s2)C1 (stereo not shown) [compound 059] | – |
| – | – | > 5 µM | O=C(Nc1nc2c(F)cc(F)cc2s1)C1CNCc2ccccc21 (stereo not shown) [compound 060] | – |
| 94 | – | 1.02 µM | CN(C)CCN1CC2(C(=O)Nc3nc4c(Cl)cc(F)cc4s3)CCC1CC2 [compound 061] | – |
| 92 | – | 3.4 µM | O=C(Nc1nc2c(F)cc(F)cc2s1)C12CCC(CC1)NC2 [compound 062] | – |
| 77 | – | 1.9 µM | CN(C)c1ccc(N2CCCC(C(=O)Nc3nc4c(F)cc(F)cc4s3)C2)cc1 (stereo not shown) [compound 066] | – |
| 88 | – | 0.7 µM | O=C(Nc1nc2c(F)cc(F)cc2s1)C1CCCN(CCn2cccn2)C1 (stereo not shown) [compound 067] | – |
| 89 | – | 0.9 µM | O=C(Nc1nc2c(F)cc(F)cc2s1)C1CCCN(CCn2ccnc2)C1 (stereo not shown) [compound 068] | – |
| – | 89-98% | 0.03 to 0.2 µM | CN1CCC(N2CCCC(C(=O)Nc3nc4c(F)cc(F)cc4s3)C2)C1 (stereo not shown) [compound 069] | – |
| – | 71% and 85% | – | CN1CCCC(N2CCCC(C(=O)Nc3nc4c(F)cc(F)cc4s3)C2)C1 (stereo not shown) [compound 070] | – |
| 93 | – | 0.2 µM | CN1CCC(N2CCCC(C(=O)Nc3nc4c(F)cc(F)cc4s3)C2)CC1 (stereo not shown) [compound 071] | – |
| – | 118% and 94% | 1.2 µM and 1 µM | CN1CCCC1CN1CCCC(C(=O)Nc2nc3c(F)cc(F)cc3s2)C1 (stereo not shown) [compound 072] | – |
| 94 | – | 0.4 µM | CN1CCCCC1CN1CCCC(C(=O)Nc2nc3c(F)cc(F)cc3s2)C1 (stereo not shown) [compound 073] | – |
| 80 | – | 1.1 µM | CN1CCCC(CN2CCCC(C(=O)Nc3nc4c(F)cc(F)cc4s3)C2)C1 (stereo not shown) [compound 074] | – |
| 92 | – | 1.5 µM | CN1CCC(CN2CCCC(C(=O)Nc3nc4c(F)cc(F)cc4s3)C2)CC1 (stereo not shown) [compound 075] | – |

| SMILES | Emax [1] [%] | Max efficacy [2] | EC50 [2] | Emax [2] [%] |
| --- | --- | --- | --- | --- |
| O=C(Nc1nc2c(F)cc(F)cc2s1)C1CCC2CCC1N2 (stereo not shown) [compound 049] | – | – | 0.3 µM | 98 |
